{"source": "patent US8594942B2", "about": "“Computational method and system for identifying network patterns in complex biological systems data” (Metabolon, Inc., priority 2004, dated 2013)", "key": {"Male Fischer 344 rats": {"tested_on": "Male Fischer 344 rats", "experiment": "Acetaminophen-induced liver toxicity study: biochemical profiling (LC-MS) of rat liver", "format": "in vivo", "conditions": "rat liver metabolite, single dose p.o.", "protocol": "An acetaminophen-induced liver toxicity study was performed as follows. Male Fischer 344 rats were administered a single dose of acetaminophen (APAP) at 0, 50, 150, 1500 or 2000 mg/kg p.o. (6 rats per group). The 150 mg/kg dose is equivalent to a low overdose level in humans (˜10 g) and 1500 mg/kg is a low toxic dose in rats. The rats were sacrificed at 6, 18, 24, and 48 hr post dosing. Livers of the rats were processed for biochemical profiling, histopathology and gene expression analysis. For the 0, 50 and 1500 mg/kg dose groups, rat urine was collected at −24-0, 0-6, 6-24, and 24-48 hr relative to dosing. Similarly, rat serum was collected at 48 hr for the 0, 50 and 1500 mg/kg groups.\nRat tissue was prepared for LC-MS analysis as follows. Rat liver tissue samples were frozen upon collection. A slice of each frozen sample was placed into a mortar, covered with liquid nitrogen, and ground with a pestle. 100 mg of ground sample was placed in a cryovial, extraction fluid and beads were added, and the sample was further ground and then centrifuged. The supernatant was transferred to a clean cryovial, centrifuged again, and then transferred to a well of a 96-well plate.\nLC-MS analysis of the rat tissue and biofluid samples was performed on an Applied Biosystems Mariner liquid chromatograph coupled with a time of flight mass spectrometer (LC-TOF). The mass resolution for the mass spectrometer employed in this experiment was 0.200 amu. One LC was employed with a splitter that allowed for the eluent to be delivered to two TOF MS instruments, one operating in positive ionization mode, the other in negative ionization mode. Compounds detected by LC-MS with an electrospray ion source were cataloged based on retention times and mass-to-charge ratio (m/z) of the ions characteristic of each peak. Mass spectrometric data were collected from 80-900 amu. Raw LC-MS data were processed using the commercially available software TARGETDB (Thru-Put Systems, Inc., Orlando, Fla.).\nA targeted list of relative responses for peaks and peaks annotated as known compounds was produced from the LC/MS data for the rat liver samples described in Example 1 and is illustrated in FIG. 1. The resulting biochemical profiling data was subjected to Principal Component Analysis (PCA), showing trends over both dose and time (see FIG. 2). The third principal component (x-axis) is plotted against the second principal component (y-axis) for each of the 6, 18, 24 and 48 hr time points for acetaminophen doses 150 mg/kg (yellow), 1500 mg/kg (black), and 2000 mg/kg (green). Each data point represents the average for six animals.\nMathematical models of the trends observed in the PCA plot were developed. […] Trend 1 is a trend of increasing distance from control as the dose increases at any given time point. Trend 2 is a trend of change from one time point to the next that is in the same direction and of increasing magnitude as dose increases. Each of the relative response peaks in the liver biochemical profiling dataset was tested for adherence to the mathematical models to locate the subset of peaks that followed the observed trends. The peaks that adhered to the models were identified as the subset of most interest for further analysis of acetaminophen-induced liver changes. To further investigate the mode of action of acetaminophen, the known compounds in the identified subset were further analyzed using the methods and systems of the present invention.\nUsing the methods and systems of the present invention, another graph was generated depicting the 15 components of interest, from Example 3 above, that were closely related enough to fit on a single graph. […] It should be noted that not only is the perturbation of the 15 compounds of interest depicted in FIG. 5, but the experimental result from any compound measured and depicted in the network of FIG. 5 is shown. […]"}, "rats": {"tested_on": "rats", "conditions": "cited from earlier work"}}, "note": "Entries after “also recorded” stand apart in the source; their conditions may differ."}
{"compound": "CC(=O)Nc1ccc(O)cc1", "note": "[acetaminophen]", "values": [{"measurement": "Status of L-asparagine", "setting": "Male Fischer 344 rats; FIG. 5 network component 2", "value": "Down Regulated"}, {"measurement": "Status of ‘N’-acetyl-“b”-D-glucosamine", "setting": "Male Fischer 344 rats; FIG. 5 network component 7", "value": "Down Regulated"}, {"measurement": "Status of “a”-ketoglutarate", "setting": "Male Fischer 344 rats; FIG. 5 network component 8", "value": "Down Regulated"}, {"measurement": "Status of L-glutamine", "setting": "Male Fischer 344 rats; FIG. 5 network component 10", "value": "Down Regulated"}, {"measurement": "Status of L-arginine", "setting": "Male Fischer 344 rats; FIG. 5 network component 14", "value": "didn't undergo a significant change; also recorded: No Significant Change"}, {"measurement": "Status of L-cystathionine", "setting": "Male Fischer 344 rats; FIG. 5 network component 17", "value": "Down Regulated"}, {"measurement": "Status of “a”-hetobutyrate", "setting": "Male Fischer 344 rats; FIG. 5 network component 18", "value": "Down Regulated"}, {"measurement": "Status of L-cysteine", "setting": "Male Fischer 344 rats; FIG. 5 network component 19", "value": "Down Regulated"}, {"measurement": "Status of L-serine", "setting": "Male Fischer 344 rats; FIG. 5 network component 21", "value": "Down Regulated"}, {"measurement": "Status of “o”-phosphoethanolamine", "setting": "Male Fischer 344 rats; FIG. 5 network component 23", "value": "Up Regulated"}, {"measurement": "Status of (‘S)-lactate", "setting": "Male Fischer 344 rats; FIG. 5 network component 25", "value": "Down Regulated"}, {"measurement": "Status of Pyruvate", "setting": "Male Fischer 344 rats; FIG. 5 network component 26", "value": "Down Regulated"}, {"measurement": "Status of Phospho‘enol’pyruvate", "setting": "Male Fischer 344 rats; FIG. 5 network component 29", "value": "No Significant Change"}, {"measurement": "Status of GTP", "setting": "Male Fischer 344 rats; FIG. 5 network component 30", "value": "Down Regulated"}, {"measurement": "Status of GDP", "setting": "Male Fischer 344 rats; FIG. 5 network component 31", "value": "didn't undergo a significant change; also recorded: No Significant Change"}, {"measurement": "Status of Phenylpyruvate", "setting": "Male Fischer 344 rats; FIG. 5 network component 32", "value": "Up Regulated"}, {"measurement": "Status of L-phenylalanine", "setting": "Male Fischer 344 rats; FIG. 5 network component 33", "value": "Down Regulated"}, {"measurement": "Status of L-tyrosine", "setting": "Male Fischer 344 rats; FIG. 5 network component 34", "value": "Down Regulated"}, {"measurement": "Status of L-dopa", "setting": "Male Fischer 344 rats; FIG. 5 network component 35", "value": "Down Regulated"}, {"measurement": "Status of glutathione", "setting": "Male Fischer 344 rats; FIG. 5 network component 37", "value": "Up Regulated"}, {"measurement": "low toxic dose in rats", "setting": "rats", "value": 1500, "unit": "mg/kg"}]}
